Patent publication US20260365618A1 (priority 2022, published 2026)
≈ marks a conversion by molar mass, not a printed value.

Tested on: F. tularensis subsp. holarctica
Test: microbe, parasite or virus in culture
Assay type: cell-based, Francisella tularensis subsp. holarctica
Conditions: Francisella tularensis, 48 h

Compound | MIC50 [µg/mL] | MIC (read-out: MIC Range) [µg/mL]
CC[C@H]1OC(=O)[C@H](C)[C@@H](O[C@H]2C[C@@](C)(OC)[C@@H](O)[C@H](C)O2)[C@H](C)[C@@H](O[C@@H]2O[C@H](C)C[C@H](N(C)C)[C@H]2O)[C@](C)(O)C[C@@H](C)C(=O)[C@H](C)[C@@H](O)[C@]1(C)O [Erythromycin] | 8 (≈ 10.9 µM) | –
C=C[C@]1(C)C[C@@H](OC(=O)CS[C@@H]2CC[C@@H](N)C[C@H]2O)[C@]2(C)[C@H](C)CC[C@]3(CCC(=O)[C@H]32)[C@@H](C)[C@@H]1O [Lefamulin, 14-O-{[(1R, 2R, 4R)-4-amino-2-hydroxy-cyclohexylsulfanyl]-acetyl}-mutilin] | 4 (≈ 7.88 µM) | 0.5 to 8 (≈ 0.985 to 15.8 µM)
